Consider one compound from ChEMBL document CHEMBL4725370, “Discovery of Proteolysis-Targeting Chimera Molecules that Selectively Degrade the IRAK3 Pseudokinase” (J Med Chem, 2020).

Molecules are shown by their SMILES. Active and inactive are the calls of the source. The rule behind the calls is not given here.

In series [1] the target is NT-3 growth factor receptor (Homo sapiens, UniProt Q16288). Briefly: Inhibition of NTRK3 (unknown origin).
In series [2] the target is Delta(24)-sterol reductase (Homo sapiens) (UniProt Q15392). Briefly: Displacement of polymer supported probe 25 binding to DHCR24 in human THP-1 cell lysates at 30 uM preincubated for 45 mins under shaking condition followed by probe addition and measured after 30 mins by mass spectrometry based chemoproteomic analysis relative to control. Format: subcellular.
For series [3], the target named is Interleukin-1 receptor-associated kinase 1 (Homo sapiens, UniProt P51617). Nature of the series: Displacement of polymer supported probe 25 binding to IRAK1 in human THP-1 cell lysates preincubated for 45 mins under shaking condition followed by probe addition and measured after 30 mins by mass spectrometry based chemoproteomic analysis. In kind it is subcellular. To be noted: read-out: Kd(app).

Series [4] concerns the target Interleukin-1 receptor-associated kinase 3 (Homo sapiens) (UniProt Q9Y616). Briefly: Inhibition of IRAK3 (unknown origin) at 0.1 uM relative to control.
For series [5], the system named is THP-1. Nature of the series: Selectivity ratio of Kd(app) for displacement of polymer supported probe 25 binding to CDK8 in human THP-1 cell lysates to Kd(app) for displacement of polymer supported probe 25 binding to IRAK3 in human THP-1 cell lysates.
In series [6] the test system is THP-1. Briefly: Selectivity ratio of Kd(app) for displacement of polymer supported probe 25 binding to CDK11 in human THP-1 cell lysates to Kd(app) for displacement of polymer supported probe 25 binding to IRAK3 in human THP-1 cell lysates.
The nature of series [7]: Octanol/buffer partition coefficient, log D of the compound at pH 7.4 by shake-flask method. Format: physicochemical.
The target in series [8] is T1, Interleukin-1 receptor-associated kinase 3 (Homo sapiens, UniProt Q9Y616).
T1 sequence (Q9Y616 whole entry): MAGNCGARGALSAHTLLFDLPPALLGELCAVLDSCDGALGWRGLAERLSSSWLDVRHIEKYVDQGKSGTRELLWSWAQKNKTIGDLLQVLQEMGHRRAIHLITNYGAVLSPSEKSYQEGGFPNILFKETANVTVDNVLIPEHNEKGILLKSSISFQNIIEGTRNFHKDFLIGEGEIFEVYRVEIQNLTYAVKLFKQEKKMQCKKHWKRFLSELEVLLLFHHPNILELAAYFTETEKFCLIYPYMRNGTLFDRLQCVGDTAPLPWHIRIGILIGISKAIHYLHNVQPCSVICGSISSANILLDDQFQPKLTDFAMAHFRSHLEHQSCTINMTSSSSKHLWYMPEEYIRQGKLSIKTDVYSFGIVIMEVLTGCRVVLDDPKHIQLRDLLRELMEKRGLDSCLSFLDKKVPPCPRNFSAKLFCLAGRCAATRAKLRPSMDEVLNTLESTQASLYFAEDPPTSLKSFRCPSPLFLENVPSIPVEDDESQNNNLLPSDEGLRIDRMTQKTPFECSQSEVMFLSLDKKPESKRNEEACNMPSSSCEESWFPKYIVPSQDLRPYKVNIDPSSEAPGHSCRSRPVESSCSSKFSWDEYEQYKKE
Briefly: Displacement of polymer supported probe 25 binding to IRAK3 in human THP-1 cell lysates preincubated for 45 mins under shaking condition followed by probe addition and measured after 30 mins by mass spectrometry based chemoproteomic analysis. Format: subcellular. To be noted: read-out: Kd(app).

Series [9] deals with T2, Protein cereblon/Interleukin-1 receptor-associated kinase 3 (Homo sapiens, UniProt Q9Y616+Q96SW2). Nature of the series: Protac activity at CRBN/IRAK3 in human THP1 cells assessed as induction of IRAK3 degradation at 0.1 uM preincubated for 16 hrs followed by compound washout and measured after 24 hrs by Western blot analysis. In kind it is cell-based. To be noted: THP-1.
Target sequence in this assay (Q96SW2 whole entry, looked up, one chain of several): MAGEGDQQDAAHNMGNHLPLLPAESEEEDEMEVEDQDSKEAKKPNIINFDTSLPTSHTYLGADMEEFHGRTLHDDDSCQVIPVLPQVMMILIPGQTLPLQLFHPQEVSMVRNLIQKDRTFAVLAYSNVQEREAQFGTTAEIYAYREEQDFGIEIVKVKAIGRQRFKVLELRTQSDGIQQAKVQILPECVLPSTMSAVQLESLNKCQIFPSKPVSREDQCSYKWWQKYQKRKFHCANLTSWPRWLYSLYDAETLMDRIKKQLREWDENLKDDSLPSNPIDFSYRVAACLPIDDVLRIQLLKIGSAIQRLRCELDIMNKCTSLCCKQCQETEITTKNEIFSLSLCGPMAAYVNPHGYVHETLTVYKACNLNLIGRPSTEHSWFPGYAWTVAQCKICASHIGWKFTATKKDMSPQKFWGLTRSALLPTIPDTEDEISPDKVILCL

The target of series [10] is T2, Protein cereblon/Interleukin-1 receptor-associated kinase 3. Nature of the series: Protac activity at CRBN/IRAK3 in LPS-induced human THP1 cells assessed as induction of IRAK3 degradation at 0.1 uM measured after 6 hrs by HPLC-MS based global proteomic analysis relative to control. Format: cell-based. To be noted: THP-1.
Target sequence in this assay (Q96SW2 whole entry, looked up, one chain of several): as above
Series [11] has the same target. Nature of the series: Protac activity at CRBN/IRAK3 in LPS-induced human THP1 cells assessed as induction of IRAK3 degradation after 16 hrs by Western blot analysis. Format: cell-based. To be noted: thp-1.
Target sequence in this assay (Q96SW2 whole entry, one chain of several): as the sequence (Q96SW2 whole entry, looked up, one chain of several) above
In series [12] the target is Protein cereblon/Eukaryotic peptide chain release factor GTP-binding subunit ERF3A (Homo sapiens) (UniProt Q96SW2+P15170). Briefly: Protac activity at CRBN/GSPT1 in LPS-induced human THP1 cells assessed as induction of GSPT1 degradation at 0.1 uM measured after 6 hrs by HPLC-MS based global proteomic analysis. To be noted: THP-1. Format: cell-based.
The target in series [13] is T3, Serine/threonine-protein kinase haspin (Homo sapiens, UniProt Q8TF76).
T3 sequence (Q8TF76 whole entry): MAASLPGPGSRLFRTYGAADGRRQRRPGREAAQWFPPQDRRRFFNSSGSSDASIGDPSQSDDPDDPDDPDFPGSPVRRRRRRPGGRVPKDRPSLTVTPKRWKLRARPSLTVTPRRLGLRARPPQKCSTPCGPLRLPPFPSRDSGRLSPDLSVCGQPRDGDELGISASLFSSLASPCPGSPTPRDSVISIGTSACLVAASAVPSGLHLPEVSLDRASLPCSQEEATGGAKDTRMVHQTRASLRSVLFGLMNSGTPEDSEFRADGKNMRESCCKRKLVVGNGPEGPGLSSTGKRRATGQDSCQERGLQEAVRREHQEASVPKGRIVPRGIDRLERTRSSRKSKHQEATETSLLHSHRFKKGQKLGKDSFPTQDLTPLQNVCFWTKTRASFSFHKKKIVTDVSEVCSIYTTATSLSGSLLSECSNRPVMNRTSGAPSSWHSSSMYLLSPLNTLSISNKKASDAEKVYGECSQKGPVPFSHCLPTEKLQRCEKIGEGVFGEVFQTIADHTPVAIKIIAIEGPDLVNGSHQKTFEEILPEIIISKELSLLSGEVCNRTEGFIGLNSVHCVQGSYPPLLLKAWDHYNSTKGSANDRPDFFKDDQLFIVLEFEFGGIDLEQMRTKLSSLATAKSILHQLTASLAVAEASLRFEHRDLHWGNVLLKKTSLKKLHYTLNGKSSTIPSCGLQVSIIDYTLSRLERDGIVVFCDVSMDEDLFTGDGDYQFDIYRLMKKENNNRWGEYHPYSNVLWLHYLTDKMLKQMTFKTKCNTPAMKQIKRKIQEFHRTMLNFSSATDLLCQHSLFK
Nature of the series: Inhibition of GSG2 (unknown origin).

The target of series [14] is T2, Protein cereblon/Interleukin-1 receptor-associated kinase 3. Briefly: Protac activity at CRBN/IRAK3 in human THP1 cells assessed as induction of IRAK3 degradation at 0.1 uM measured after 6 hrs in presence of NEDD8-activating enzyme inhibitor MLN4924 by Western blot analysis. Format: cell-based. The settings on record: THP-1. Background: A western blot detects proteins with antibodies after separation by electrophoresis.
Target sequence in this assay (Q96SW2 whole entry, looked up, one chain of several): as the sequence (Q96SW2 whole entry, looked up, one chain of several) above

Delta(24)-sterol reductase (Homo sapiens), sequence (Q15392 whole entry): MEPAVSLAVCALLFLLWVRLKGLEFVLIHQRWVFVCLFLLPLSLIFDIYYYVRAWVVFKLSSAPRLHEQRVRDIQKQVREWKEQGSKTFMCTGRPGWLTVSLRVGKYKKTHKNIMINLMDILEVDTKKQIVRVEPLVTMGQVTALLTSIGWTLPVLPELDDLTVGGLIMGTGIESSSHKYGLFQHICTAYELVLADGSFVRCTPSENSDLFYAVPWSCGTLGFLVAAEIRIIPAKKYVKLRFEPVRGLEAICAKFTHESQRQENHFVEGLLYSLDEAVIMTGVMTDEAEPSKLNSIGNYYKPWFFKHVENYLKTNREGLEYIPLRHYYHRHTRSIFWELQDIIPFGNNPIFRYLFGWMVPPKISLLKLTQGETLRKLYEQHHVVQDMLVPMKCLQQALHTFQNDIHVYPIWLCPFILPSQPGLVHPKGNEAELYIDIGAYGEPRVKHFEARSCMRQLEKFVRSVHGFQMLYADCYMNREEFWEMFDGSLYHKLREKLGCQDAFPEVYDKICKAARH
Protein cereblon/Eukaryotic peptide chain release factor GTP-binding subunit ERF3A (Homo sapiens), sequence (P15170 whole entry, looked up): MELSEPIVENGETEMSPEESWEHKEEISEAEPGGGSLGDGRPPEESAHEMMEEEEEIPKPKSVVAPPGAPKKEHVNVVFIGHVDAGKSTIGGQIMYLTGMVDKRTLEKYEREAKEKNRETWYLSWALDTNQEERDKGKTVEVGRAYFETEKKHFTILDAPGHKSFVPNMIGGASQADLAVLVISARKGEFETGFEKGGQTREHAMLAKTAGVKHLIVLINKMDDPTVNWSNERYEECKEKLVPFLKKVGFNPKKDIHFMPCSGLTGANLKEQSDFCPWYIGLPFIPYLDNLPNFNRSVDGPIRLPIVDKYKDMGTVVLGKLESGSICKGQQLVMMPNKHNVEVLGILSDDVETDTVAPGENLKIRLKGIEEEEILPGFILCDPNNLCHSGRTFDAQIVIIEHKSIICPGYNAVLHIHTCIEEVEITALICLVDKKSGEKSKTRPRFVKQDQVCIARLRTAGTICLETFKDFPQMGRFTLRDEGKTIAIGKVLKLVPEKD
Protein cereblon/Eukaryotic peptide chain release factor GTP-binding subunit ERF3A (Homo sapiens), sequence (Q96SW2 whole entry, looked up): as the sequence (Q96SW2 whole entry, looked up, one chain of several) above
NT-3 growth factor receptor, sequence (Q16288 whole entry): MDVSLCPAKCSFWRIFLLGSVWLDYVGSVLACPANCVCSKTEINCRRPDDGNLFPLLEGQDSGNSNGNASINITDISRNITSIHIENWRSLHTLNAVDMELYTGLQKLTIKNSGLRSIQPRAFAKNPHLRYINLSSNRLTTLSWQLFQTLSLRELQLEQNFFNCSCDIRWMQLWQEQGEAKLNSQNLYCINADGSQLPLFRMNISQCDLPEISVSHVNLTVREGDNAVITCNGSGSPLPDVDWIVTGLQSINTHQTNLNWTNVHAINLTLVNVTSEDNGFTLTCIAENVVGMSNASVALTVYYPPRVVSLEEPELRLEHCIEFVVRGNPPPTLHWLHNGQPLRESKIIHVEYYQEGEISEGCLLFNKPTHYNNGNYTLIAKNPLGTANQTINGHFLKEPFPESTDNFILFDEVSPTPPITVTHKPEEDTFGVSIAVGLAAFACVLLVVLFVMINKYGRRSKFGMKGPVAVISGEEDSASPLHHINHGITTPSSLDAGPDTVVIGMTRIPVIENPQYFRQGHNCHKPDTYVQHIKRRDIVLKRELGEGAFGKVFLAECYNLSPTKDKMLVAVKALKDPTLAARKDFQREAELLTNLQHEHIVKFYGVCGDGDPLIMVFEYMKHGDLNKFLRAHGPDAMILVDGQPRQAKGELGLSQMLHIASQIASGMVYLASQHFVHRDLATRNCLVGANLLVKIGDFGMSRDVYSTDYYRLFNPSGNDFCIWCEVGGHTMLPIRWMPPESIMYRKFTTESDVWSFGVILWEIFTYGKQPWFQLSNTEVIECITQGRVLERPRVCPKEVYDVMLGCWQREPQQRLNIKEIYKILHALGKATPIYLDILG
Interleukin-1 receptor-associated kinase 1, sequence (P51617 whole entry): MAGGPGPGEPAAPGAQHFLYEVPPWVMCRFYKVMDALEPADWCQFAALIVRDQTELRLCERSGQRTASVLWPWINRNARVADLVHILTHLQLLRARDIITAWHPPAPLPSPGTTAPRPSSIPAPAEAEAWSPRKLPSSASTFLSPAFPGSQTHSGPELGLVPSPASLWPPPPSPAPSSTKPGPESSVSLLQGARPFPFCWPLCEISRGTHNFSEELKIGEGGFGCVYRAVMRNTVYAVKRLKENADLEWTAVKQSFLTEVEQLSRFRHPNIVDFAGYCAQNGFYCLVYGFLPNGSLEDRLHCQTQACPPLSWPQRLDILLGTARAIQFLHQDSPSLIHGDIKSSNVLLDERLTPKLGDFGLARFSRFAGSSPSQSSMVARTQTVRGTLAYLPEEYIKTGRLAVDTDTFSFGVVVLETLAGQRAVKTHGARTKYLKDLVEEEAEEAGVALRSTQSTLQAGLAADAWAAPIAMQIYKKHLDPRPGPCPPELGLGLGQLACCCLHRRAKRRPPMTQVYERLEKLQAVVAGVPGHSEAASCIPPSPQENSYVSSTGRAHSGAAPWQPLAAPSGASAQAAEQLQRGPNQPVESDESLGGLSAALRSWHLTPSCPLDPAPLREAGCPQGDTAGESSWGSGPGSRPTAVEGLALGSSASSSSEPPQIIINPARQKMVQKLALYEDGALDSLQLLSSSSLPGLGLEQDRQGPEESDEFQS

For orientation: IC50 means the concentration needed to halve the response being measured. The term inhibition denotes the change of the read-out against control, counted positive when it falls. Read a high inhibition as a response far below the control. Usually logD stands for the decadic logarithm of the distribution of all forms, ionised or not, between an organic phase and buffer at a given pH. In general, DC50 refers to the midpoint of the concentration-degradation curve. Take `CC(C)c1ccn2ncnc(N[C@H]3CC[C@@H](N4CCN(C(=O)CCC(=O)N5CCC(CCN6CCN(c7ccc8c(c7)C(=O)N(C7CCC(=O)NC7=O)C8=O)CC6)CC5)CC4)CC3)c12` (some centres undefined): the values for the IC50 in [1] and in series [13] were 100 nM and 110 nM, respectively. Besides, the inhibition in series [2] is under 40%; in series [4], 93%. The Kd in [3] turned out to be 2800 nM; in series [8], 34 nM. In addition, the Selectivity ratio is 41 with THP-1 [5] and over 880 in the series with THP-1 [6]. This compound also returned a logD in series [7] of 3.1. Also, the result in [9], in series [12] and in series [14] was inactive. The fold change (FC) in [10] was -1.8. Moreover, in series [11], the DC50 turned out to be 2 nM.
